The text below walks through data of patent publication US12479827B2, “Heteroaromatic carboxamide derivatives as plasma kallikrein inhibitors” (Boehringer Ingelheim International GmbH, priority 2020, dated 2025).

In one experiment the target is T1, Human PKK (Homo sapiens, UniProt P03952).
T1 construct: purchased Enzyme Research Laboratories
Kind of experiment: Inhibition of PKK using an endpoint assay (human PKK). Format: biochemical. Conditions: fluorogenic substrate H-Pro-Phe-Arg-AMC, 1 h room temperature, method names human or rat PKK, table does not say which. The gist of the method:
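Endpoint fluorescence (ex 355 nm, em 460 nm) after stopping with 1 μM final PPACK II. Buffer: Tris 100 mM pH 7.8, NaCl 150 mM, BSA 0.1%, Tween20 0.05%, with 1% DMSO present; enzyme is human plasma kallikrein.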

In experiment [1] the target is T2, PKK in kaolin activated human platelet poor plasma (Homo sapiens, UniProt P03952).
T2 construct: Platelet poor plasma (PPP) obtained from human wholeblood; from tissue
T2 sequence (P03952 391-638 limits assumed): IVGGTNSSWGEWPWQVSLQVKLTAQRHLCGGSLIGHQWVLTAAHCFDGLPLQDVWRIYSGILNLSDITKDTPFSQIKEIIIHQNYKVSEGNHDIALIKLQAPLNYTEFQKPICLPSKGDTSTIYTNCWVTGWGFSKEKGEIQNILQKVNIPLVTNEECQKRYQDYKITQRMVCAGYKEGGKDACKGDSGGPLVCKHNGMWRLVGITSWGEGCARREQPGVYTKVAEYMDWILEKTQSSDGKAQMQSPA
T2 sequence (P03952 20-390 limits assumed): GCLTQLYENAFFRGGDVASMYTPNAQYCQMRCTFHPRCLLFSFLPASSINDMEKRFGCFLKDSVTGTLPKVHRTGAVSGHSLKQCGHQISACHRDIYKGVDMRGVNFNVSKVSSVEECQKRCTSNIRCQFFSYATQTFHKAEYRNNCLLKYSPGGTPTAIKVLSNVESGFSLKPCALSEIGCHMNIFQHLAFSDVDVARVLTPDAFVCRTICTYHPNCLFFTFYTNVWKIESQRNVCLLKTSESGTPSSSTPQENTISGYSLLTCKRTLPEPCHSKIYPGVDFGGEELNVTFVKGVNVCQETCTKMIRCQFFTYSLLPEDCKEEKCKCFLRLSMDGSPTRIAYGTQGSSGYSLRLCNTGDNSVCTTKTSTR
Kind of experiment: Inhibition of PKK in kaolin activated human PPP.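 Note: readout is the rate of fluorogenic substrate cleavage in rfu per min.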 Format: biochemical. Conditions: 25-750 μg/mL kaolin, global fit, text b200 calls the values IC90. On the procedure:
Platelet poor plasma (PPP) obtained from human wholeblood, anticoagulated with Na-Citrate, is incubated with various concentrations of the test compound together with either 25, 75, 250, or 750 μg/mL kaolin in assay buffer for 20 min at 37° C. such that for each kaolin dose used a concentration response is obtained for the test compound.

Molecules are shown by their SMILES.

T1 sequence (P03952 20-390 limits assumed): as above
T1 sequence (P03952 391-638 limits assumed): as the sequence (P03952 391-638 limits assumed) above

One may read the IC50 as the point on the concentration scale where inhibition reaches its midpoint. Take `Cc1nc(N2CC3C(C2)C3(F)F)ccc1Cc1ncc(C(=O)N[C@@H]2CCc3c2ncn3C)s1` (stereo partly drawn) [Example 188, 2-[(6-{6,6-Difluoro-3-azabicyclo[3.1.0]hexan-3-yl}-2-methylpyridin-3-yl)methyl]-N-[(4R)-1-methyl-1H,4H,5H,6H-cyclopenta[d]imidazol-4-yl]-1,3-thiazole-5-carboxamide]: the 50% inhibitory concentration (IC50) at Human PKK came to 19.8 nM; in experiment [1], 1500 nM.
With `Cc1cc(N2CC3C(C2)C3(F)F)ccc1Cn1cc(C(=O)N[C@@H]2CCc3c2ncn3C)cn1` (stereo partly drawn) [Example 199, 1-[(4-{6,6-difluoro-3-azabicyclo[3.1.0]hexan-3-yl}-2-methylphenyl)methyl]-N-[(4R)-1-methyl-1H,4H,5H,6H-cyclopenta[d]imidazol-4-yl]-1H-pyrazole-4-carboxamide], the IC50 against Human PKK was 3.1 nM; in experiment [1], 808 nM.
Take `Cn1cnc2c1CC[C@H]2NC(=O)c1cn(Cc2ccc(N3CC4CC4C3)c(C#N)c2F)cn1` (stereo partly drawn) [Example 201, 1-[(4-{3-azabicyclo[3.1.0]hexan-3-yl}-3-cyano-2-fluorophenyl)methyl]-N-[(4R)-1-methyl-1H,4H,5H,6H-cyclopenta[d]imidazol-4-yl]-1H-imidazole-4-carboxamide]: the IC50 against Human PKK amounted to 0.6 nM; in experiment [1] it was 130 nM.
In the case of `Cn1cnc2c1CC[C@H]2NC(=O)c1cnn(Cc2ccc(N3CC4CC4C3)c(C#N)c2Cl)c1` (stereo partly drawn) [Example 202, 1-[(4-{3-azabicyclo[3.1.0]hexan-3-yl}-2-chloro-3-cyanophenyl)methyl]-N-[(4R)-1-methyl-1H,4H,5H,6H-cyclopenta[d]imidazol-4-yl]-1H-pyrazole-4-carboxamide], the IC50 on Human PKK worked out at 0.5 nM; in experiment [1], 157 nM.
In the case of `Cn1cnc2c1CC[C@H]2NC(=O)c1cn(Cc2ccc(N3CC4CC4C3)c(C#N)c2Cl)cn1` (stereo partly drawn) [Example 203, 1-[(4-{3-azabicyclo[3.1.0]hexan-3-yl}-2-chloro-3-cyanophenyl)methyl]-N-[(4R)-1-methyl-1H,4H,5H,6H-cyclopenta[d]imidazol-4-yl]-1H-imidazole-4-carboxamide], the figures for the IC50 (against Human PKK; in experiment [1]) were 0.7 nM and 202 nM, respectively.
Take `Cn1cnc2c1CC[C@H]2NC(=O)c1cn(Cc2ccc(N3CC4CC4C3)cc2Br)cn1` (stereo partly drawn) [Example 204, 1-[(4-{3-azabicyclo[3.1.0]hexan-3-yl}-2-bromophenyl)methyl]-N-[(4R)-1-methyl-1H,4H,5H,6H-cyclopenta[d]imidazol-4-yl]-1H-imidazole-4-carboxamide]: the IC50 on Human PKK turned out to be 1.5 nM; in experiment [1], 818 nM.
`Cn1cnc2c1CC[C@H]2NC(=O)c1cn(Cc2ccc(N3CC4CC4C3)cc2C#N)cn1` (stereo partly drawn) [Example 206, 1-[(4-{3-azabicyclo[3.1.0]hexan-3-yl}-2-cyanophenyl)methyl]-N-[(4R)-1-methyl-1H,4H,5H,6H-cyclopenta[d]imidazol-4-yl]-1H-imidazole-4-carboxamide]: the IC50 against Human PKK worked out at 0.4 nM; in experiment [1], 138 nM.
For the compound `Cn1cnc2c1CC[C@H]2NC(=O)c1cn(Cc2ccc(N3CC4CC4C3)cc2CO)cn1` (stereo partly drawn) [Example 207, 1-[(4-{3-azabicyclo[3.1.0]hexan-3-yl}-2-(hydroxymethyl)phenyl)methyl]-N-[(4R)-1-methyl-1H,4H,5H,6H-cyclopenta[d]imidazol-4-yl]-1H-imidazole-4-carboxamide], the values for the IC50 (on Human PKK; in experiment [1]) were 3.2 nM and 745 nM, respectively.
As to `Cn1cnc2c1CC[C@H]2NC(=O)c1cnn(Cc2ccc(N3CC4C(C3)C4(F)F)cc2C#N)c1` (stereo partly drawn) [Example 208, 1-[(2-cyano-4-{6,6-difluoro-3-azabicyclo-[3.1.0]hexan-3-yl}phenyl)methyl]-N-[(4R)-1-methyl-1H,4H,5H,6H-cyclopenta[d]imidazol-4-yl]-1H-pyrazole-4-carboxamide], the IC50 at Human PKK turned out to be 0.6 nM; in experiment [1], 80 nM.
The like results for `Cn1cnc2c1CC[C@H]2NC(=O)c1cnn(Cc2ccc(N3CC4C(C3)C4(F)F)cc2Br)c1` (stereo partly drawn) [Example 209, 1-[(2-bromo-4-{6,6-difluoro-3-azabicyclo-[3.1.0]hexan-3-yl}phenyl)methyl]-N-[(4R)-1-methyl-1H,4H,5H,6H-cyclopenta[d]imidazol-4-yl]-1H-pyrazole-4-carboxamide] were, in that order, 1.5 nM and 432 nM.
Turning to `Cn1cnc2c1CC[C@H]2NC(=O)c1cn(Cc2ccc(N3CC4C(C3)C4(F)F)cc2C#N)cn1` (stereo partly drawn) [Example 210, 1-[(2-cyano-4-{6,6-difluoro-3-azabicyclo-[3.1.0]hexan-3-yl}phenyl)methyl]-N-[(4R)-1-methyl-1H,4H,5H,6H-cyclopenta[d]imidazol-4-yl]-1H-imidazole-4-carboxamide], the IC50 was 0.4 nM on Human PKK and 128 nM in experiment [1].
The like results for `Cn1cnc2c1CC[C@H]2NC(=O)c1cn(Cc2ccc(N3CC4C(C3)C4(F)F)cc2Cl)cn1` (stereo partly drawn) [Example 211, 1-[(2-chloro-4-{6,6-difluoro-3-azabicyclo-[3.1.0]hexan-3-yl}phenyl)methyl]-N-[(4R)-1-methyl-1H,4H,5H,6H-cyclopenta[d]imidazol-4-yl]-1H-imidazole-4-carboxamide] were, in that order, 0.8 nM and 590 nM.
For the compound `Cn1cnc2c1CC[C@H]2NC(=O)c1cn(Cc2ccc(N3CC4C(C3)C4(F)F)cc2F)cn1` (stereo partly drawn) [Example 212, 1-[(4-{6,6-difluoro-3-azabicyclo[3.1.0]hexan-3-yl}-2-fluorophenyl)methyl]-N-[(4R)-1-methyl-1H,4H,5H,6H-cyclopenta[d]imidazol-4-yl]-1H-imidazole-4-carboxamide], the IC50 against Human PKK amounted to 2.1 nM; in experiment [1] it was 1890 nM.
The like results for `Cn1cnc2c1CC[C@H]2NC(=O)c1cnn(Cc2ccc(N3CC4C(C3)C4(F)F)cc2F)c1` (stereo partly drawn) [Example 213, 1-[(4-{6,6-difluoro-3-azabicyclo[3.1.0]hexan-3-yl}-2-fluorophenyl)methyl]-N-[(4R)-1-methyl-1H,4H,5H,6H-cyclopenta[d]imidazol-4-yl]-1H-pyrazole-4-carboxamide] were, in that order, 2.3 nM and 621 nM.
In the case of `Cn1cnc2c1CC[C@H]2NC(=O)c1cn(Cc2cnc(N3CC4CC4C3)nc2CO)cn1` (stereo partly drawn) [Example 214, 1-[(2-{3-Azabicyclo[3.1.0]hexan-3-yl}-4-(hydroxymethyl)pyrimidin-5-yl)methyl]-N-[(4R)-1-methyl-1H,4H,5H,6H-cyclopenta[d]imidazol-4-yl]-1H-imidazole-4-carboxamide], the IC50 against Human PKK turned out to be 20.3 nM; in experiment [1], 1040 nM.
As to `CC(O)c1nc(N2CC3C(C2)C3(F)F)ccc1Cn1cc(C(=O)N[C@@H]2CCc3c2ncn3C)nn1` (stereo partly drawn) [Example 215, 1-[(6-{6,6-Difluoro-3-azabicyclo[3.1.0]hexan-3-yl}-2-(1-hydroxyethyl)pyridin-3-yl)methyl]-N-[(4R)-1-methyl-1H,4H,5H,6H-cyclopenta[d]imidazol-4-yl]-1H-1,2,3-triazole-4-carboxamide], the results for the IC50 (at Human PKK; in experiment [1]) were 0.7 nM and 194 nM, respectively.
`Cc1nc(N2CC3CC3C2)ccc1Cn1cc(C(=O)N[C@@H]2CCc3c2ncn3C)c(CCO)n1` (stereo partly drawn) [Example 216, 1-[(6-{3-Azabicyclo[3.1.0]hexan-3-yl}-2-methylpyridin-3-yl)methyl]-3-(2-hydroxyethyl)-N-[(4R)-1-methyl-1H,4H,5H,6H-cyclopenta[d]imidazol-4-yl]-1H-pyrazole-4-carboxamide]: the results for the concentration for half-maximal inhibition (IC50) (against Human PKK; in experiment [1]) were 1.2 nM and greater than 10000 nM, respectively.
The like results for `COCc1nc(N2CC3CC3C2)ccc1Cc1cc(C(=O)N[C@@H]2CCc3c2ncn3C)[nH]n1` (stereo partly drawn) [Example 219, 3-[(6-{3-Azabicyclo[3.1.0]hexan-3-yl}-2-(methoxymethyl)pyridin-3-yl)methyl]-N-[(4R)-1-methyl-1H,4H,5H,6H-cyclopenta[d]imidazol-4-yl]-1H-pyrazole-5-carboxamide] were, in that order, 3.6 nM and 776 nM.
`Cn1cnc2c1CC[C@H]2NC(=O)c1cc(Cc2ccc(N3CC4CC4C3)nc2CO)n[nH]1` (stereo partly drawn) [Example 220, 3-[(6-{3-Azabicyclo[3.1.0]hexan-3-yl}-2-(hydroxymethyl)pyridin-3-yl)methyl]-N-[(4R)-1-methyl-1H,4H,5H,6H-cyclopenta[d]imidazol-4-yl]-1H-pyrazole-5-carboxamide]: the IC50 at Human PKK was found to be 1.9 nM; in experiment [1] it was 525 nM.
